This note sets out measurements from patent publication US7629341B2, “Human ADAM-10 inhibitors” (Symphony Evolution, Inc., priority 2003, dated 2009).

As usually defined, the IC50 is the concentration that gives 50% inhibition.

For one experiment, the target named is MMP-3 (Stromelysin-1) (Homo sapiens, UniProt P08254). Description: In vitro metalloprotease inhibition, MMP-3. Type of experiment: biochemical. From the text: (§1) Blank cells indicate lack of data only.
For another experiment, the target named is MMP-13 (collagenase-3) (Homo sapiens, UniProt P45452). Description: In vitro metalloprotease inhibition, MMP-13. Type of experiment: biochemical.
In experiment [1] the target is T1, MMP-1 (Fibroblast collagenase) (Homo sapiens, UniProt P03956).
T1 sequence (P03956 100-469): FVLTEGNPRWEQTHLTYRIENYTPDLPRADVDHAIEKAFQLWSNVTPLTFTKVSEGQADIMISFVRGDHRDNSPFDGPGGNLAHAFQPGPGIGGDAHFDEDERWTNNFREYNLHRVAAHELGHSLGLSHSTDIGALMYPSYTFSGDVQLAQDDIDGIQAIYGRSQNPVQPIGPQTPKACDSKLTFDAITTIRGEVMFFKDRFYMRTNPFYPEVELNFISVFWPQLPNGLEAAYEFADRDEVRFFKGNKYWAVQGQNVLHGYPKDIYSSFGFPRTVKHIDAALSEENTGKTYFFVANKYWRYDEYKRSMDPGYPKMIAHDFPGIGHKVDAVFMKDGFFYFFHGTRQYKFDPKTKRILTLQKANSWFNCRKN
Nature of the experiment: In vitro metalloprotease inhibition, MMP-1. The format is biochemical.
From the text: as §1

Experiment [2] deals with T2, MMP-2 (72 kDa gelatinase, gelatinase A) (Homo sapiens, UniProt P08253).
T2 sequence (P08253 110-660): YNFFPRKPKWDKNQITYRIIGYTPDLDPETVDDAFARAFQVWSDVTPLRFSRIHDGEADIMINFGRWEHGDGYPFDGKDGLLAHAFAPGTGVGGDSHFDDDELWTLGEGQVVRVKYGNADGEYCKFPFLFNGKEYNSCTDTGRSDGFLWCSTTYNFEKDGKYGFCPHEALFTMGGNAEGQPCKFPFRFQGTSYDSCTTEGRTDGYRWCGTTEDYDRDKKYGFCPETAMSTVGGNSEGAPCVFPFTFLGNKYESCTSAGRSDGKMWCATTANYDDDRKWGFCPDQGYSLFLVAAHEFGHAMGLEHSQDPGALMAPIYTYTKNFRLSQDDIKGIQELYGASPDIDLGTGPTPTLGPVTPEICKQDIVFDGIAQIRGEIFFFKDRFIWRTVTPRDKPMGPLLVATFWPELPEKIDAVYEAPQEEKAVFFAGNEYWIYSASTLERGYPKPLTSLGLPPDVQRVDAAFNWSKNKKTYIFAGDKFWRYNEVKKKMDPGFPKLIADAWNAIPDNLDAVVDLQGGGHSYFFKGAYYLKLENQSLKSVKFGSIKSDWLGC
Description: In vitro metalloprotease inhibition, MMP-2. Type of experiment: biochemical.

The target in another experiment is T3, ADAM-10 (UniProt O14672).
T3 sequence (O14672 1-748): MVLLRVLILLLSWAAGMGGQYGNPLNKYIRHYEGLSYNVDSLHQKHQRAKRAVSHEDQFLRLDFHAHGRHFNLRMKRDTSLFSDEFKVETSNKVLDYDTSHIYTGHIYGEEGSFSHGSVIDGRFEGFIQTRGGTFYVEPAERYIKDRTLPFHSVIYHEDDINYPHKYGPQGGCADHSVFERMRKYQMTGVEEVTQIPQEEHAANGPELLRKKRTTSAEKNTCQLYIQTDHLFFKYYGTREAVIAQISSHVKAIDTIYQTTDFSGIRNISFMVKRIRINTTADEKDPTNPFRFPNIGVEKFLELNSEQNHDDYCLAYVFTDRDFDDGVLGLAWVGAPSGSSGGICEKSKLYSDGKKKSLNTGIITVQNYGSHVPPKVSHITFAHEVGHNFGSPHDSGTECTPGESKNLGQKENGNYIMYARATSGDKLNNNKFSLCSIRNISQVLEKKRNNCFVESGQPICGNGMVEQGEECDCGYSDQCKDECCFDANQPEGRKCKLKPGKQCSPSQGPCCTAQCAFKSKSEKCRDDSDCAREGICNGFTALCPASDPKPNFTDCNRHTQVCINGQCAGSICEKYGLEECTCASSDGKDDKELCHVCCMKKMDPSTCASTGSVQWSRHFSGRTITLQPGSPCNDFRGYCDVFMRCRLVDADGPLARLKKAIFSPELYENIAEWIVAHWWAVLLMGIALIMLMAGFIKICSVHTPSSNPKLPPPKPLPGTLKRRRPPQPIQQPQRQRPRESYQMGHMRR
Nature of the experiment: ADAM-10 enzyme assay, cleavage of a fluorogenic 10-residue peptide.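 Note: mouse or human ADAM-10 at 5 nM active enzyme, pH 8.0 HEPES buffer with CaCl2 and NP-40, compounds titrated 100 µM down to 0.5 nM, fluorescence read after 16 h at room temperature.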 The format is biochemical, mouse or human (mADAM-10 or hADAM-10). The settings on record: in vitro.

Bounds are passed on as bounds.

Chain of MMP-3 (Stromelysin-1) (P08254 100-477, species assumed): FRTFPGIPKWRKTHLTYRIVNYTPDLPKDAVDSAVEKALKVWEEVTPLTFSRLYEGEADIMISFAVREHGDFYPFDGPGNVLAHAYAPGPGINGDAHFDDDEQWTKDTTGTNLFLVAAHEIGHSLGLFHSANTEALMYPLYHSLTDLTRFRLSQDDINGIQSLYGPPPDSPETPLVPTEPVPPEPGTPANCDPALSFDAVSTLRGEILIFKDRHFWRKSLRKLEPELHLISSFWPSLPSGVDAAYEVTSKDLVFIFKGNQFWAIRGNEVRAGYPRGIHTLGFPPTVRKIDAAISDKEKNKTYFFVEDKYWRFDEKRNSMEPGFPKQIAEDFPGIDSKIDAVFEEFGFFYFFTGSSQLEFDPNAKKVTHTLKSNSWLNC
Description for ADAM-10: mADAM-10 or hADAM-10 activity was measured as the ability to cleave a 10-residue peptide (DABCYL-Leu-Leu-Ala-Gln-Lys-*-LeuArg-Ser-Ser-Arg-EDANS). […] Enzyme was diluted to a final active concentration of 5 nM in Buffer A (50 mM HEPES 8.0, 100 mM NaCl, 1 mM CaCl2 and 0.01% NP-40). Serial dilutions for compounds were performed ranging from 100 μM to 0.5 nM using a Beckman Biomek 2000 in polypropylene plates (Greiner). […] This reaction was incubated for 16 hr at RT and fluorescence was read using identical conditions.

Turning to `CN1CCN(S(=O)(=O)c2cc(F)c(Oc3ccc(F)cc3)c(F)c2)[C@@H](C(=O)NO)C1` [Entry 14], the half-maximal inhibitory concentration (IC50) was greater than 20000 nM against MMP-3 (Stromelysin-1); less than 50 nM on MMP-13 (collagenase-3); greater than 20000 nM in experiment [1]; less than 50 nM in experiment [2]; 50 to 1000 nM on ADAM-10.
As for `CN1CCN(C(=O)NS(=O)(=O)N2CCN(S(=O)(=O)c3cc(F)c(Oc4ccc(Cl)cc4)c(F)c3)[C@@H](C(=O)NO)C2)CC1` [Entry 39], the IC50 on MMP-3 (Stromelysin-1) was less than 50 nM; against MMP-13 (collagenase-3), less than 50 nM; in experiment [1], 50 to 1000 nM; in experiment [2], less than 50 nM; at ADAM-10, less than 50 nM.
Consider `CN1CCN(CCS(=O)(=O)N2CCN(S(=O)(=O)c3cc(F)c(Oc4ccc(Cl)cc4)c(F)c3)[C@@H](C(=O)NO)C2)CC1` [Entry 55], for which the IC50 against MMP-3 (Stromelysin-1) is 50 to 1000 nM; at MMP-13 (collagenase-3) it was less than 50 nM; in experiment [1] it was 1000 to 20000 nM; in experiment [2], less than 50 nM; at ADAM-10 it was less than 50 nM.
Turning to `CNC(=O)CN1CCN(S(=O)(=O)c2cc(F)c(Oc3ccc(Cl)cc3)c(F)c2)[C@@H](C(=O)NO)C1` [Entry 19], the IC50 was 50 to 1000 nM on MMP-3 (Stromelysin-1); less than 50 nM against MMP-13 (collagenase-3); greater than 20000 nM in experiment [1]; less than 50 nM in experiment [2]; less than 50 nM on ADAM-10.
In the case of `CN(C)c1ccc2ccc(S(=O)(=O)N3CCN(S(=O)(=O)c4cc(F)c(Oc5ccc(Cl)cc5)c(F)c4)[C@@H](C(=O)NO)C3)cc2c1` [Entry 50], the IC50 against MMP-3 (Stromelysin-1) is 50 to 1000 nM; against MMP-13 (collagenase-3), less than 50 nM; in experiment [1], greater than 20000 nM; in experiment [2] it was greater than 20000 nM; at ADAM-10, 1000 to 20000 nM.
`O=C(NO)[C@H]1CN(C(=O)Cc2ccncc2)CCN1S(=O)(=O)c1cc(F)c(Oc2ccc(Cl)cc2)c(F)c1` [Entry 52]: the IC50 on MMP-3 (Stromelysin-1) was 1000 to 20000 nM; against MMP-13 (collagenase-3), less than 50 nM; in experiment [1] it was 1000 to 20000 nM; in experiment [2], less than 50 nM; at ADAM-10, less than 50 nM.
In the case of `CCOC(=O)N1CCN(CC(=O)N2CCN(S(=O)(=O)c3cc(F)c(Oc4ccc(Cl)cc4)c(F)c3)[C@@H](C(=O)NO)C2)CC1` [Entry 23], the IC50 was 1000 to 20000 nM against MMP-3 (Stromelysin-1); less than 50 nM against MMP-13 (collagenase-3); greater than 20000 nM in experiment [1]; less than 50 nM in experiment [2]; less than 50 nM at ADAM-10.
Take `O=C(NO)[C@H]1CN(S(=O)(=O)c2cccc3cnccc23)CCN1S(=O)(=O)c1cc(F)c(Oc2ccc(Cl)cc2)c(F)c1` [Entry 48]: the IC50 on MMP-3 (Stromelysin-1) was 50 to 1000 nM; against MMP-13 (collagenase-3) it was less than 50 nM; in experiment [1], greater than 20000 nM; in experiment [2], less than 50 nM; at ADAM-10, less than 50 nM.
As to `O=C(NO)[C@H]1CN(C(=O)N2CCOCC2)CCN1S(=O)(=O)c1cc(F)c(Oc2ccc(F)cc2)c(F)c1` [Entry 12], the IC50 was 50 to 1000 nM against MMP-3 (Stromelysin-1); less than 50 nM on MMP-13 (collagenase-3); 1000 to 20000 nM in experiment [1]; less than 50 nM in experiment [2]; less than 50 nM on ADAM-10.
On to `O=C(CCl)NC(=O)N1CCN(S(=O)(=O)c2cc(F)c(Oc3ccc(Cl)cc3)c(F)c2)[C@@H](C(=O)NO)C1` [Entry 33], for which the 50% inhibitory concentration (IC50) was 50 to 1000 nM on MMP-3 (Stromelysin-1); less than 50 nM on MMP-13 (collagenase-3); 1000 to 20000 nM in experiment [1]; less than 50 nM in experiment [2]; less than 50 nM against ADAM-10.
On to `CN(C)C(=O)CN1CCN(S(=O)(=O)c2cc(F)c(Oc3ccc(Cl)cc3)c(F)c2)[C@@H](C(=O)NO)C1` [Entry 20], for which the 50% inhibitory concentration (IC50) was 1000 to 20000 nM against MMP-3 (Stromelysin-1); less than 50 nM on MMP-13 (collagenase-3); greater than 20000 nM in experiment [1]; less than 50 nM in experiment [2]; less than 50 nM against ADAM-10.
For the molecule `O=C(NO)[C@H]1CN(C(=O)OCCN2CCCCC2)CCN1S(=O)(=O)c1cc(F)c(Oc2ccc(Cl)cc2)c(F)c1` [Entry 27], the IC50 was 50 to 1000 nM on MMP-3 (Stromelysin-1); less than 50 nM against MMP-13 (collagenase-3); 1000 to 20000 nM in experiment [1]; less than 50 nM in experiment [2]; less than 50 nM against ADAM-10.
